Data taken from patent US9156790B2, “Anticancer P21-activated kinase inhibitors” (Ohio State Innovation Foundation, priority 2013, dated 2015).
Like-named read-outs stand apart in the source and are kept apart here.

Tests used:
[1] = system: TPC1 cells; test: MTT cell viability assay, TPC1; assay type: cell-based, Human; conditions: 1% FBS, mean±standard deviation (n=3), read-out: IC50 for reducing viability of TPC1 cells versus DMSO control
Source text: (§1) Human thyroid cancer BCPAP, TPC1, and FTC133 cell lines were the generous gifts of Drs. Rebecca Schweppe and Bryan Haugen (University of Colorado Denver) (Schweppe et al., The Journal of clinical endocrinology and metabolism 83:4331-4341 (2008)) with permission from the following originating laboratories: BCPAP—Dr. Fabien, Centre Hospitalier Lyon-Sud, France (Fabien et al., Cancer 73:2206-2212 (1994)); TPC1—Dr. Sato, Kanazawa University, Japan (Tanaka et al., Virology 161:62-411 (1987)); and FTC133—Dr. Goretzki, University of Leipzig, Germany (Goretzki et al., Recent Results Cancer Res 118:48-63 (1990)). The obtained cell lines were confirmed for identity by DNA fingerprinting. BCPAP was grown in RPMI 1640 medium (Life Technologies Co., Carlsbad, Calif.) while FTC133 and TPC1 were grown in DMEM (Life Technologies Co.), both supplemented with 10% fetal bovine serum (FBS) and NEAA unless as noted for experiments.
(§2) The effect of OSU-03012 and its derivatives on cell viability was assessed by using the 3-(4,5-dimethylthiazol-2-yl)-2,5-diphenyl-2H-tetrazolium bromide (MTT) assay. Three replicates were performed in each individual experiment, and experiments were repeated at least three separate times. Cells were grown in 96-well plates for 24 hours and were exposed to various concentrations of drugs dissolved in DMSO (final concentration 0.1%) in RPMI 1640 or DMEM containing 1% FBS for 72 hours. 10 μL of 0.5 mg/ml MTT was added to each well and cells were incubated in CO2 at 37° C. for 2 hours. Supernatants were removed from the wells, the reduced MTT dye was solubilized in 100 μL of solution C (12 ml of 1N HCl in 300 mL of isopropanol), and absorbance at 570 nm was determined on a microplate reader.
(§3) We assessed the ability of the compounds to reduce cell viability in vitro by MTT assay after 72 hours of continuous exposure. Results are shown in Table 1 and are depicted as the IC50 vs. simultaneously performed DMSO control.
(§4) ^aThe reported IC50 values are concentrations at which BCPAP, FTC133 and TPC1 cell viability by MTT assays 50% of DMSO control after 72-hours of exposure. Data are presented as mean±standard deviation (n=3). PAK and PDK1 Selectivity In Vivo

[2] = system: FTC133 cells; test: MTT cell viability assay, FTC133; assay type: cell-based, Human; conditions: 1% FBS, mean±standard deviation (n=3), read-out: IC50 for reducing viability of FTC133 cells versus DMSO control
Source text: as §1, §2, §3, §4

[3] = biological target: T1, Recombinant active PAK 1 (Homo sapiens, UniProt Q13153); test: In vitro PAK1 kinase assay (MBP substrate, 32P-ATP); assay type: biochemical; conditions: for Relative PAK1 inhibitory potency (comparison in words): in vitro kinase assay, comparison between compounds / with OSU-03012; for Inhibition of PAK1 kinase activity in initial screen: 7.5 μM inhibitor, 2.5 μM ATP, myelin basic protein substrate (FIG. 2A)
T1 construct: purchased Calbiochem
Description: Recombinant active PAK 1 (Calbiochem) was incubated with selected derivatives or 0.1% DMSO in the presence or absence of MBP (Sigma) in a 1× kinase buffer (Cell Signaling). The addition of [γ-32P]-ATP (2.5 μCi/reaction) (Perkin Elmer) started the reaction, which was incubated at 30° C. for 30 minutes. The reaction was terminated by the addition of EDTA. Results were obtained after visualization of ^32P-labeled MBP after separation on 12% polyacrylamide gels and autoradiography. For the Lineweaver-Burk plot analysis, the ratio of radioactive ATP to nonradioactive ATP was not altered. The PAK1 kinase activities are the means of three independent experiments quantified using P81 phosphocellulose paper by a scintillation counter after three washes with 0.75% phosphoric acid.
Screening of OSU-03012 Derivatives to Identify PAK1 Inhibitors. The 17 derivatives along with OSU-03012, each at 7.5 μM, were screened for their ability to inhibit PAK1 activity by in vitro PAK1 kinase assay. The dose was chosen (above the IC50 of OSU-03012) to allow OSU-03012 to serve as a robust positive control. The PAK1 kinase assay was performed using recombinant active PAK1 with myelin basic protein as substrate in the presence of 2.5 μM ATP and 7.5 μM of respective inhibitors.
To further investigate these six compounds, dose-response studies on PAK1 activity were performed by using PAK1 kinase assay. […] We next questioned whether compounds 4 or 15 inhibited PAK1 in an ATP competitive manner as their parent compound OSU-03012.

[4] = system: BCPAP cells; test: MTT cell viability assay, BCPAP; assay type: cell-based, Human; conditions: 72-hours of exposure, 1% FBS, mean±standard deviation (n=3), read-out: IC50 for reducing viability of BCPAP cells versus DMSO control
Source text: as §1, §2, §3, §4

[5] = Homo sapiens, TPC1, 72-hours of exposure
[6] = Homo sapiens, FTC-133, 72-hours of exposure

T1 sequence (Q13153 whole entry): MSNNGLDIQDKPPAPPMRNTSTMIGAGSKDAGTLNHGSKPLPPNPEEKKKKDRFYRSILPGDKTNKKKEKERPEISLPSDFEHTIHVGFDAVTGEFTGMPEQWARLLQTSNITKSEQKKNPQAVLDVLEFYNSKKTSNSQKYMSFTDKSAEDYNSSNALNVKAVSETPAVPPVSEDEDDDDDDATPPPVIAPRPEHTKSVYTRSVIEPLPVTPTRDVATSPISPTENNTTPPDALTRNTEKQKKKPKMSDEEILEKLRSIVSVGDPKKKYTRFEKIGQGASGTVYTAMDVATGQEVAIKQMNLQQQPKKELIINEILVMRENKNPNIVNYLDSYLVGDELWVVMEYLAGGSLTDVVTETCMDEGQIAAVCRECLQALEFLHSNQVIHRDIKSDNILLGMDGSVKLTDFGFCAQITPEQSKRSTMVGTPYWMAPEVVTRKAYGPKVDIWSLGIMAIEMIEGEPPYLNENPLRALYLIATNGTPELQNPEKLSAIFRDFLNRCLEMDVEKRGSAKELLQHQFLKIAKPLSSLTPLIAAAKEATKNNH

| Compound | IC50 ([1]; 72-hours of exposure) [µM] | IC50 ([2]; 72-hours of exposure) [µM] | Relative PAK1 inhibitory potency (comparison in words) [3] | IC50 [4] [µM] | IC50 [1, 5] [µM] | IC50 [2, 6] [µM] | Inhibition of PAK1 kinase activity in initial screen [3] | IC50 ([4]; Homo sapiens, BCPAP) [µM] |
| --- | --- | --- | --- | --- | --- | --- | --- | --- |
| 1-(4-Aminophenyl)-5-(phenanthren-2-yl)-1H-pyrazol-3-yl) methanol [Compound 6] | > 10 | > 10 | did not show any activity | > 10 | – | – | – | – |
| NCC(=O)Nc1ccc(-n2nc(C(=O)NCc3ccccc3)cc2-c2ccc3ccc4ccccc4c3c2)cc1 [Compound 1, 1-(4-(2-Aminoacetamido)phenyl)-N-benzyl-5-(phenanthren-3-yl)-1H-pyrazole-3-carboxamide] | – | – | – | – | 2.6 ± 0.81 | 4.78 ± 4.53 | inhibited PAK1 kinase activity | 2.01 ± 0.59 |
| CCNC(=O)c1cc(-c2ccc3ccc4ccccc4c3c2)n(-c2ccc(NC(=O)CN)cc2)n1 [Compound 2, 1-(4-(2-aminoacetamido)phenyl)-N-ethyl-5-(phenanthren-3-yl)-1H-pyrazole-3-carboxamide] | – | – | – | – | 1.81 ± 1.24 | 4.83 ± 4.47 | – | 2.67 ± 0.82 |
| NCC(=O)Nc1ccc(-n2nc(C(F)(F)F)cc2-c2ccc3ccc4ccccc4c3c2)cc1 [Compound 3, 2-Amino-N-(4-(5-(phenanthren-3-yl)-3-(trifluoromethyl)-1H-pyrazol-1-yl)phenyl)-acetamide] | – | – | slightly more potent | – | 3.17 ± 1.29 | 5.32 ± 4.05 | inhibited PAK1 kinase activity | 2.34 ± 0.27 |
| CNC(=O)c1cc(-c2ccc3c(ccc4ccccc43)c2)n(-c2ccc(N)cc2)n1 [Compound 5, 1-(4-Aminophenyl)-N-methyl-5-(phenanthren-2-yl)-1H-pyrazole-3-carboxamide] | – | – | did not show any activity | – | > 10 | 5.03 ± 0.25 | – | > 10 |
| CNC(=O)c1cc(-c2ccc3ccc4ccccc4c3c2)n(-c2ccc(NC(=O)CN)cc2)n1 [Compound 7, 1-(4-(2-aminoacetamido)phenyl)-N-methyl-5-(phenanthren-3-yl)-1H-pyrazole-3-carboxamide] | – | – | – | – | 3.67 ± 1.52 | 4.53 ± 2.57 | – | 3.71 ± 1.82 |
| CNC(=O)c1cc(-c2ccc3c(ccc4ccccc43)c2)n(-c2ccc(NC(=O)CN)cc2)n1 [Compound 8, 1-(4-(2-Aminoacetamido)phenyl)-N-methyl-5-(phenanthren-2-yl)-1H-pyrazole-3-carboxamide] | – | – | – | – | 4.67 ± 4.16 | 3.08 ± 1.63 | – | 2.9 ± 2.35 |
| NCC(=O)Nc1ccc(-n2nc(CO)cc2-c2ccc3ccc4ccccc4c3c2)cc1 [Compound 9, 2-Amino-N-(4-(3-(hydroxymethyl)-5-(phenanthren-3-yl)-1H-pyrazol-1-yl)phenyl)-acetamide] | – | – | did not show any improvement | – | 2.42 ± 0.13 | 4.75 ± 2.47 | – | 4.04 ± 1.38 |
| NCC(=O)Nc1ccc(-n2nc(CO)cc2-c2ccc3c(ccc4ccccc43)c2)cc1 [Compound 10, 2-Amino-N-(4-(3-(hydroxymethyl)-5-(phenanthren-2-yl)-1H-pyrazol-1-yl)phenyl)-acetamide] | – | – | more potent activity | – | 7.39 ± 1.9 | 8.95 ± 0.57 | inhibited PAK1 kinase activity | 6.53 ± 2.16 |
| NCCC(=O)Nc1ccc(-n2nc(CO)cc2-c2ccc3c(ccc4ccccc43)c2)cc1 [Compound 12, 3-Amino-N-(4-(3-(hydroxymethyl)-5-(phenanthren-2-yl)-1H-pyrazol-1-yl)phenyl)-propanamide] | – | – | – | – | 5.83 ± 1.73 | 7.55 ± 2.19 | – | 3.76 ± 1.2 |
| CNC(=O)c1cc(-c2ccc3ccc4ccccc4c3c2)n(-c2ccc(NC(=O)CCN)cc2)n1 [Compound 13, 1-(4-(3-Aminopropanamido)phenyl)-N-methyl-5-(phenanthren-3-yl)-1H-pyrazole-3-carboxamide] | – | – | more potent | – | 3.62 ± 0.42 | 4.95 ± 3.21 | – | 2.76 ± 1.56 |
| CNC(=O)c1cc(-c2ccc3c(ccc4ccccc43)c2)n(-c2ccc(NC(=O)CCN)cc2)n1 [Compound 14, 1-(4-(3-aminopropanamido)phenyl)-N-methyl-5-(phenanthren-2-yl)-1 μl-pyrazole-3-carboxamide] | 5.98 ± 0.28 | 5.42 ± 1.56 | more potent | 3.32 ± 1.09 | – | – | – | – |
| Nc1ccc(-n2nc(CO)cc2-c2ccc3ccc4ccccc4c3c2)cc1 [Compound 16, (1-(4-Aminophenyl)-5-(phenanthren-3-yl)-1H-pyrazol-3-yl)methanol] | – | – | did not show any activity | – | 4.32 ± 2.18 | > 10 | – | > 10 |
| CNC(=O)c1cc(-c2ccc3ccc4ccccc4c3c2)n(-c2ccc(N)cc2)n1 [Compound 17, 1-(4-Aminophenyl)-N-methyl-5-(phenanthren-3-yl)-1H-pyrazole-3-carboxamide] | – | – | did not show any activity | – | 8.96 ± 1.17 | > 10 | – | > 10 |
